We go through three compounds from patent US11224565B2, “N-acyldipeptide derivatives and their uses” (NeoStrata Company, Inc., priority 2011, dated 2022).

Peptide text beside a SMILES is read from it.

Common to all, as to format: in vivo, human
The subject of experiment [1] is inflammation, dermatitis, or eczema lesions. The experiment can be described thus: Topical application to chronic inflammation, dermatitis, eczema or allergic skin lesions, clinical evaluation. Conditions: for skin color of treated skin compared to surrounding untreated skin: 4 weeks, 0.5% N-Ac-L-Tyr-L-Tyr-NH2 solution or 0.4% N-Ac-L-Val-L-Ala-NH2 in WEP442. The text has this:
In another embodiment, the volunteer subject topically applied the test compositions containing N-acyldipeptide derivatives of the present invention on involved skin or lesions once or twice daily for several weeks or until the involved lesions completely cleared and clinically changed to normal skin. As a control study, the subject also topically applied a vehicle control composition on the involved skin or lesions twice daily for the same period.

The next experiment deals with Disturbed keratinization. The experiment can be described thus: Summary of test results in volunteer subjects: disturbed keratinization. Conditions: efficacy grade. An outline of the steps: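 Volunteers applied N-acyldipeptide derivatives dissolved in water/ethanol/propylene glycol 40:40:20, ethanol/propylene glycol 80:20, or water/propylene glycol 80:20 mixed into oil-in-water cream, on involved skin once or twice daily for several weeks or until clearing. Vehicle applied twice daily as control; disturbed keratinization lesions assessed clinically.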

Experiment [2] has as its system Aging related changes of skin, nail and hair. Briefly: Summary of test results in volunteer subjects: aging related changes. The following applies: efficacy grade.
The subject of experiment [3] is Deranged immune disorders and inflammation. The experiment can be described thus: Summary of test results in volunteer subjects: deranged immune disorders and inflammation. Conditions: efficacy grade. An outline of the steps: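 Volunteers applied N-acyldipeptide derivatives topically once or twice daily for several weeks or until lesions cleared. Compounds were dissolved in water/ethanol/propylene glycol (40:40:20) or ethanol/propylene glycol (80:20), or in water/propylene glycol (80:20) mixed into an oil-in-water cream. Vehicle control applied twice daily.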

Another experiment deals with Nerve disorders. The experiment can be described thus: Summary of test results in volunteer subjects: nerve disorders. The following applies: efficacy grade. An outline of the steps:
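Volunteers applied N-acyldipeptide derivatives dissolved in water/ethanol/propylene glycol (40:40:20), ethanol/propylene glycol (80:20), or water/propylene glycol (80:20) mixed into cream, once or twice daily for several weeks or until lesions cleared. Vehicle control applied twice daily; application also over arthritic joints or painful muscles.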

Setting [4] is: chronic eczema of legs, twice daily, 2% (w/v) N-Ac-L-Val-L-Ala-NH2 cream on one leg, 0.5% (w/w) N-Ac-L-Tyr-L-Tyr-NHNHAc in WEP442 pH 5.5 on the other.
[5] abbreviates: chronic eczema right leg, twice daily.
[6] abbreviates: chronic eczema right leg, twice daily, 0.5% (w/v) N-Ac-L-Tyr-L-Tyr-NH2 solution pH 6.7 on one lesion, 0.4% (w/v) N-Ac-L-Val-L-Ala-NH2 in WEP442 pH 5.8 on second.

For the compound `CC(=O)N[C@H](C(=O)N[C@@H](C)C(N)=O)C(C)C` [N-Ac-L-Val-L-Ala-NH2] (Ac-Val-Ala-NH2), the “itch after topical application” value in experiment [1] (0.5% (w/w) cream twice daily, skin allergy from shellfish with reddish papules) was “stopped within a few minutes”; in experiment [1] (setting [4]), “stopped within a few minutes”; in experiment [1] (setting [6]), “stopped within a few minutes”. For the same compound, the “improvement as judged by clinical evaluation” value in experiment [1] (0.5% (w/w) cream twice daily, skin allergy from shellfish, end of 5 days) is recorded as 75%. Further, the “skin color of treated skin compared to surrounding untreated skin” value in experiment [1] (setting [5]) is “much lighter in skin color”. Further, the DK in the experiment on Disturbed keratinization was 4+ (4+: 95-100% Efficacy). Moreover, the AG in experiment [2] was 4+ (4+: 95-100% Efficacy). For the same compound, in experiment [3], the DI is 4+ (4+: 95-100% Efficacy). Besides, in the experiment on Nerve disorders, the ND is listed as 4+ (4+: 95-100% Efficacy).

On to `CC(=O)NNC(=O)[C@H](Cc1ccc(O)cc1)NC(=O)[C@H](Cc1ccc(O)cc1)NC(C)=O` [N-Ac-L-Tyr-L-Tyr-NHNHAc], for which the “itch after topical application” value is reported as “stopped within a few minutes” in experiment [1] (setting [4]) and “stopped immediately” in experiment [1] (chronic eczema, twice daily, 0.6% (w/w) N-Ac-L-Tyr-L-Tyr-NHNH2 cream on one set of lesions, 0.7% (w/w) N-Ac-L-Tyr-L-Tyr-NHNHAc cream on another). Also, in experiment [1] (chronic eczema, twice daily, two weeks, 0.6% (w/w) N-Ac-L-Tyr-L-Tyr-NHNH2 cream on one set of lesions, 0.7% (w/w) N-Ac-L-Tyr-L-Tyr-NHNHAc cream on another), the “improvement as judged by clinical evaluation” value is given as 100%. The DK in the experiment on Disturbed keratinization is on record as 4+ (4+: 95-100% Efficacy). Besides, in experiment [2], the AG is recorded as 3+ (3+: 75% Efficacy). Further, the DI in experiment [3] is reported as 4+ (4+: 95-100% Efficacy). Also, the ND in the experiment on Nerve disorders was 4+ (4+: 95-100% Efficacy).

As to `CC(=O)N[C@@H](Cc1ccc(O)cc1)C(=O)N[C@@H](Cc1ccc(O)cc1)C(N)=O` [N-Ac-L-Tyr-L-Tyr-NH2] (Ac-Tyr-Tyr-NH2), the “skin color of treated skin compared to surrounding untreated skin” value in experiment [1] (setting [5]) is “much lighter in skin color”. The “itch after topical application” value in experiment [1] (setting [6]) was “stopped within a few minutes”. Also, in the experiment on Disturbed keratinization, the DK is 4+ (4+: 95-100% Efficacy). In experiment [2], the AG was 4+ (4+: 95-100% Efficacy). The DI in experiment [3] was 4+ (4+: 95-100% Efficacy). Besides, in the experiment on Nerve disorders, the ND was 4+ (4+: 95-100% Efficacy).
